Measured values from ChEMBL document CHEMBL6078695, “Design, synthesis, and biological evaluations of 5-aryl-pyrazole-3-carboxamide derivatives as selective CB2 receptor agonists for the treatment of colitis” (Eur J Med Chem, 2025).
Activity calls are given as the source filed them. The rule behind the calls is not given here.

The compounds below were run against T1, Cannabinoid receptor 2 (Homo sapiens, UniProt P34972) (assay: Agonist activity at human CB2 receptor expressed in CHO-K1 cells co-transfected with human Galpha16 assessed as intracellular calcium flux). Details: not given.
Format: functional, cell-based

T1 sequence (P34972 whole entry): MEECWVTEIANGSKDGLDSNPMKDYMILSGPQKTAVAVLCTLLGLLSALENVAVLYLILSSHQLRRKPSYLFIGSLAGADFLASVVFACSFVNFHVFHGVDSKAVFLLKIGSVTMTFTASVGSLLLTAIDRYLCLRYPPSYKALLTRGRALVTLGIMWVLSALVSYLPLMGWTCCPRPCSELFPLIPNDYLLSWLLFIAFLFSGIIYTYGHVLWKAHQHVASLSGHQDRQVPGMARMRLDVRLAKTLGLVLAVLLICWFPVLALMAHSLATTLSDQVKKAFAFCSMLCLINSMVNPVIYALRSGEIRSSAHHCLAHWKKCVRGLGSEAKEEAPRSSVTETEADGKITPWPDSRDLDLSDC

Row | SMILES | EC50
1 | CCCCCn1nc(C(=O)NC(C)(C)CO)cc1-c1nccn1C | > 100 µM
2 | Cc1ccc(-n2nc(C(=O)NC(C)(C)CO)cc2-c2cccs2)cc1 | 1.04 µM
3 | COc1ccc(-n2nc(C(=O)NC(C)(C)CO)cc2-c2cccs2)cc1 | > 100 µM
4 | CCCCCn1nc(C(=O)NC(C)(C)CO)cc1-c1cc(C)cs1 | > 100 µM
5 | CCCCCn1nc(C(=O)NC(C)(C)CO)cc1-c1ccc(C)s1 | > 100 µM
6 | CCCCn1nc(C(=O)NC(C)(C)CO)cc1-c1cccn1C(C)C | > 100 µM
7 | COc1ccc(C(=O)c2c(C)n(CCN3CCOCC3)c3cc(I)ccc23)cc1 | > 100 µM
8 | CC(C)(CO)NC(=O)c1cc(-c2cccs2)n(-c2ccc(F)cc2)n1 | 0.852 µM
9 | CCCCCn1nc(C(=O)NC(C)(C)CO)cc1-c1sccc1Cl | 0.0215 µM
10 | CCCCCn1nc(C(=O)NC(C)(C)CO)cc1-c1cc(Cl)cs1 | > 100 µM
11 | CC(C)(CO)NC(=O)c1cc(-c2cccs2)n(CC2CC2)n1 | 0.174 µM
12 | CCCCCn1nc(C(=O)NC(C)(C)CO)cc1-c1ccnn1C | > 100 µM
13 | CC(C)(CO)NC(=O)c1cc(-c2cccs2)n(-c2ccc(Cl)cc2)n1 | 0.788 µM
14 | CCCCn1nc(C(=O)NC(C)(C)CO)cc1-c1cncs1 | > 100 µM
15 | CCCCCn1nc(-c2cccs2)cc1C(=O)NC(C)(C)CO | > 100 µM

Each compound was assayed against T2, Cannabinoid receptor 1 (Homo sapiens, UniProt P21554) (assay: Antagonist activity at human CB1 receptor expressed in CHO-K1 cells co-transfected with human Galpha16 assessed as intracellular calcium flux). Details: not given.
Format: functional, cell-based

T2 sequence (P21554 whole entry): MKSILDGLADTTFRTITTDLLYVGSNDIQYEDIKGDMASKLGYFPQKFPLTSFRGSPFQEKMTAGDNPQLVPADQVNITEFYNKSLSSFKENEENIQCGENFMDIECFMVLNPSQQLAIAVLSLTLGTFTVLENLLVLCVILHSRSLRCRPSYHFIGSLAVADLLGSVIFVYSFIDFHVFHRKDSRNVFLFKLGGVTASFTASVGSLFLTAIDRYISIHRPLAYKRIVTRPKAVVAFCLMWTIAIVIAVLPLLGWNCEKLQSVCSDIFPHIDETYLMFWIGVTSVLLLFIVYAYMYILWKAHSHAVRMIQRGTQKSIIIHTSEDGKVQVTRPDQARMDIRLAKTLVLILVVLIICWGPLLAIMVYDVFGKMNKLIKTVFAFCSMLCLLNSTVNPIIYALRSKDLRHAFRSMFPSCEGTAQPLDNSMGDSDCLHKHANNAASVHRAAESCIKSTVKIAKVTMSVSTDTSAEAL

Row | SMILES | IC50
16 | CCCCCn1nc(C(=O)NC(C)(C)CO)cc1-c1nccn1C | > 100 µM
17 | Cc1ccc(-n2nc(C(=O)NC(C)(C)CO)cc2-c2cccs2)cc1 | > 100 µM
18 | COc1ccc(-n2nc(C(=O)NC(C)(C)CO)cc2-c2cccs2)cc1 | > 100 µM
19 | CCCCCn1nc(C(=O)NC(C)(C)CO)cc1-c1cc(C)cs1 | > 100 µM
20 | CCCCCn1nc(C(=O)NC(C)(C)CO)cc1-c1ccc(C)s1 | > 100 µM
21 | CCCCn1nc(C(=O)NC(C)(C)CO)cc1-c1cccn1C(C)C | > 100 µM
22 | CC(C)(CO)NC(=O)c1cc(-c2cccs2)n(-c2ccc(F)cc2)n1 | > 100 µM
23 | CCCCCn1nc(C(=O)NC(C)(C)CO)cc1-c1sccc1Cl | > 100 µM
24 | CCCCCn1nc(C(=O)NC(C)(C)CO)cc1-c1ccco1 | > 100 µM
25 | CCCCCn1nc(C(=O)NC(C)(C)CO)cc1-c1cc(Cl)cs1 | > 100 µM
26 | CC(C)(CO)NC(=O)c1cc(-c2cccs2)n(CC2CC2)n1 | > 100 µM
27 | CCCCCn1nc(C(=O)NC(C)(C)CO)cc1-c1ccnn1C | > 100 µM
28 | CC(C)(CO)NC(=O)c1cc(-c2cccs2)n(-c2ccc(Cl)cc2)n1 | > 100 µM
29 | CCCCn1nc(C(=O)NC(C)(C)CO)cc1-c1cncs1 | > 100 µM
30 | CCCCCn1nc(-c2cccs2)cc1C(=O)NC(C)(C)CO | > 100 µM

These compounds were tested against T1, Cannabinoid receptor 2 (assay: Agonist activity at human CB2 receptor expressed in CHO-K1 cells co-transfected with human Galpha16 assessed as intracellular calcium flux at 10 uM). Details: not given.
Format: functional, cell-based

Row | SMILES | Activity
31 | CCCCn1nc(C(=O)NC(C)(C)CO)cc1-c1cccn1C(C)C | inactive
32 | CCCCn1nc(C(=O)NC(C)(C)CO)cc1-c1cncs1 | inactive

Same assay, conditions: filed as agonist

Row | SMILES | Activity
33 | CC(C)(CO)NC(=O)c1cc(-c2cccs2)n(CC2CC2)n1 | Active

These compounds were tested against T1, Cannabinoid receptor 2 (assay: Partial agonist activity at human CB2 receptor expressed in CHO-K1 cells co-transfected with human Galpha16 assessed as intracellular calcium flux at 10 uM). Details: not given.
Format: functional, cell-based

Row | SMILES | Activity
34 | COc1ccc(-n2nc(C(=O)NC(C)(C)CO)cc2-c2cccs2)cc1 | inactive

Same assay, conditions: filed as partial agonist

Row | SMILES | Activity
35 | Cc1ccc(-n2nc(C(=O)NC(C)(C)CO)cc2-c2cccs2)cc1 | Weak_effect
36 | CCCCn1nc(C(=O)NC(C)(C)CO)cc1-c1cccn1C(C)C | Weak_effect
37 | CC(C)(CO)NC(=O)c1cc(-c2cccs2)n(-c2ccc(F)cc2)n1 | Weak_effect
38 | CC(C)(CO)NC(=O)c1cc(-c2cccs2)n(-c2ccc(Cl)cc2)n1 | Weak_effect

These compounds were tested against T1, Cannabinoid receptor 2 (assay: Partial agonist activity at human CB2 receptor expressed in CHO-K1 cells co-transfected with human Galpha16 assessed as intracellular calcium flux at 10 uM relative to control). Details: filed as partial agonist.
Format: functional, cell-based

Row | SMILES | Emax
39 | CCCCCn1nc(C(=O)NC(C)(C)CO)cc1-c1ccco1 | 50%

What follows are compounds tested against T2, Cannabinoid receptor 1 (assay: Partial agonist activity at human CB1 receptor expressed in CHO-K1 cells co-transfected with human Galpha16 assessed as intracellular calcium flux at 10 uM relative to control). Details: filed as partial agonist.
Format: functional, cell-based

Row | SMILES | Emax
40 | CCCCCn1nc(C(=O)NC(C)(C)CO)cc1-c1ccco1 | 80%

Each compound was assayed against T2, Cannabinoid receptor 1 (assay: Partial agonist activity at human CB1 receptor expressed in CHO-K1 cells co-transfected with human Galpha16 assessed as intracellular calcium flux). Details: not given.
Format: functional, cell-based

Row | SMILES | EC50
41 | CCCCCn1nc(C(=O)NC(C)(C)CO)cc1-c1ccco1 | 0.957 µM

What follows are compounds tested against T1, Cannabinoid receptor 2 (assay: Agonist activity at human CB2 receptor expressed in CHO-K1 cells co-transfected with human Galpha16 assessed as intracellular calcium flux at 10 uM relative to control). Details: filed as agonist.
Format: functional, cell-based

Row | SMILES | Emax
42 | Cc1ccc(-n2nc(C(=O)NC(C)(C)CO)cc2-c2cccs2)cc1 | 45%
43 | CC(C)(CO)NC(=O)c1cc(-c2cccs2)n(-c2ccc(F)cc2)n1 | 48%
44 | CCCCCn1nc(C(=O)NC(C)(C)CO)cc1-c1sccc1Cl | 76%
45 | CC(C)(CO)NC(=O)c1cc(-c2cccs2)n(CC2CC2)n1 | 55%
46 | CC(C)(CO)NC(=O)c1cc(-c2cccs2)n(-c2ccc(Cl)cc2)n1 | 82%

The compounds below were run against T1, Cannabinoid receptor 2 (assay: Antagonist activity at human CB2 receptor expressed in CHO-K1 cells co-transfected with human Galpha16 assessed as intracellular calcium flux). Details: not given.
Format: functional, cell-based

Row | SMILES | IC50
47 | CCCCCn1nc(C(=O)NC(C)(C)CO)cc1-c1nccn1C | > 100 µM
48 | Cc1ccc(-n2nc(C(=O)NC(C)(C)CO)cc2-c2cccs2)cc1 | > 100 µM
49 | COc1ccc(-n2nc(C(=O)NC(C)(C)CO)cc2-c2cccs2)cc1 | > 100 µM
50 | CCCCCn1nc(C(=O)NC(C)(C)CO)cc1-c1cc(C)cs1 | 0.0685 µM
51 | CCCCCn1nc(C(=O)NC(C)(C)CO)cc1-c1ccc(C)s1 | 0.0282 µM
52 | CCCCn1nc(C(=O)NC(C)(C)CO)cc1-c1cccn1C(C)C | > 100 µM
53 | COc1ccc(C(=O)c2c(C)n(CCN3CCOCC3)c3cc(I)ccc23)cc1 | 0.179 µM
54 | CC(C)(CO)NC(=O)c1cc(-c2cccs2)n(-c2ccc(F)cc2)n1 | > 100 µM
55 | CCCCCn1nc(C(=O)NC(C)(C)CO)cc1-c1sccc1Cl | > 100 µM
56 | CCCCCn1nc(C(=O)NC(C)(C)CO)cc1-c1cc(Cl)cs1 | 0.0346 µM
57 | CC(C)(CO)NC(=O)c1cc(-c2cccs2)n(CC2CC2)n1 | > 100 µM
58 | CCCCCn1nc(C(=O)NC(C)(C)CO)cc1-c1ccnn1C | > 100 µM
59 | CC(C)(CO)NC(=O)c1cc(-c2cccs2)n(-c2ccc(Cl)cc2)n1 | > 100 µM
60 | CCCCn1nc(C(=O)NC(C)(C)CO)cc1-c1cncs1 | > 100 µM

These compounds were tested against T2, Cannabinoid receptor 1 (assay: Agonist activity at human CB1 receptor expressed in CHO-K1 cells co-transfected with human Galpha16 assessed as intracellular calcium flux). Details: not given.
Format: functional, cell-based

Row | SMILES | EC50
61 | CCCCCn1nc(C(=O)NC(C)(C)CO)cc1-c1nccn1C | > 100 µM
62 | Cc1ccc(-n2nc(C(=O)NC(C)(C)CO)cc2-c2cccs2)cc1 | > 100 µM
63 | COc1ccc(-n2nc(C(=O)NC(C)(C)CO)cc2-c2cccs2)cc1 | > 100 µM
64 | CCCCCn1nc(C(=O)NC(C)(C)CO)cc1-c1cc(C)cs1 | > 100 µM
65 | CCCCCn1nc(C(=O)NC(C)(C)CO)cc1-c1ccc(C)s1 | > 100 µM
66 | CCCCn1nc(C(=O)NC(C)(C)CO)cc1-c1cccn1C(C)C | > 100 µM
67 | CC(C)(CO)NC(=O)c1cc(-c2cccs2)n(-c2ccc(F)cc2)n1 | > 100 µM
68 | CCCCCn1nc(C(=O)NC(C)(C)CO)cc1-c1sccc1Cl | > 100 µM
69 | CCCCCn1nc(C(=O)NC(C)(C)CO)cc1-c1cc(Cl)cs1 | > 100 µM
70 | CC(C)(CO)NC(=O)c1cc(-c2cccs2)n(CC2CC2)n1 | > 100 µM
71 | CCCCCn1nc(C(=O)NC(C)(C)CO)cc1-c1ccnn1C | > 100 µM
72 | CC(C)(CO)NC(=O)c1cc(-c2cccs2)n(-c2ccc(Cl)cc2)n1 | > 100 µM
73 | CCCCn1nc(C(=O)NC(C)(C)CO)cc1-c1cncs1 | > 100 µM
74 | CCCCCn1nc(-c2cccs2)cc1C(=O)NC(C)(C)CO | > 100 µM

Each compound was assayed against T1, Cannabinoid receptor 2 (assay: Partial agonist activity at human CB2 receptor expressed in CHO-K1 cells co-transfected with human Galpha16 assessed as intracellular calcium flux). Details: not given.
Format: functional, cell-based

Row | SMILES | EC50
75 | CCCCCn1nc(C(=O)NC(C)(C)CO)cc1-c1ccco1 | 0.056 µM
